Assay results published in patent US20060234987A1, “Neuroprotective benzo 1 3 oxathiol 2 ones” (priority 2003, published 2006).

These compounds were tested on SCG neurons (assay: Protection of SCG neurons from anti-NGF killing). Details: Rattus norvegicus, Neuron, 48 h, read-out: IC50, rescue from anti-NGF killing of cultured SCG neurons.
Assay type: cell-based, Sprague Dawley rats
Protocol: Neurotrophins are critical to the growth, development, and survival of small fiber neurons of the PNS. SCG neurons are neurons of the PNS that undergo apoptosis upon NGF withdrawal. In a typical experiment SCG neurons are cultured in the presence of NGF, which induces survival and neurite out-growth. After 5 days the NGF is removed by either the addition of anti-NGF polyclonal antibody (Sigma) or by repeated washings (4 times) with NGF free media, resulting in the apoptosis of up to 90% of the neurons after 48 hours, as measured by MTS staining. The addition of selected compounds of Formula I to the final cellular media provides upwards of 100% protection, at drug concentrations ranging from 10 to 50 μM (see Example 62).
Protection of SCG neurons from anti-NGF killing. SCG neurons were isolated from day 1 neonatal Sprague Dawley rats, plated at a cell density of 5,000 cells/well, and incubated in Biowhittaker Ultraculture containing 1% Penstrep, 1% L-glutamine, 0.7% ARAC, 3% rat serum, and NGF (50 ng/mL, Calomone Labs), at 37° C., under a 5% CO2 atmosphere. After 4 days the cells were treated with anti-NGF antibody (Sigma). At this time compound was added and the cells were maintained serum and NGF free for 48 hours, at which time viability of the neurons was assessed using Alamar Blue (Medicorp) staining. Table 3 summarizes selected IC50 values from compounds tested using this protocol.

Row | SMILES | IC50
1 | O=c1oc2c(-c3ccc(Cl)cc3Cl)cc(O)cc2s1 [Compound 41, 7-(2,4-dichlorophenyl)-5-hydroxybenzo[1,3]oxathiol-2-one] | 7 µM
2 | Cc1cc(OC(=O)NC2CCCCC2)cc2sc(=O)oc12 [Compound 31, 5-(N-Cyclohexylcarbamoyloxy)-7-methylbenzo[1,3]oxathiol-2-one] | 35 µM
3 | O=c1oc2c(-c3ccc(Br)cc3)cc(O)cc2s1 [Compound 44, 7-(4-bromophenyl)-5-hydroxybenzo[1,3]oxathiol-2-one] | 20 µM

Same assay, conditions: Rattus norvegicus, Neuron; anti-NGF antibody, 48 hours, Alamar Blue viability; read-out: IC50, rescue from anti-NGF killing of cultured SCG neurons

Row | SMILES | IC50
4 | O=C(Oc1cc(-c2ccccc2)c2oc(=O)sc2c1)c1sc2ccccc2c1Cl [Compound 33, 5-(3-chlorobenzothiophen-2-ylcarbonyloxy)-7-phenylbenzo[1,3]oxathiol-2-one] | > 30 µM
5 | O=c1oc2c3c4c(cc2s1)CCCN4CCC3 [Compound 57] | 50 µM
6 | O=c1oc2c([S+]([O-])c3ccc4ccccc4c3)cc(O)cc2s1 (stereo not shown) [Compound 24, 5-Hydroxy-7-((2-naphthyl)sulfinyl)benzo[1,3]oxathiol-2-one] | > 30 µM
7 | O=c1oc2c(-c3cccc(Cl)c3)cc(O)cc2s1 [Compound 37, 7-(3-chlorophenyl)-5-hydroxybenzo[1,3]oxathiol-2-one] | > 30 µM
8 | O=c1oc2ccc(O)c(Sc3nc4ccccc4s3)c2s1 [Compound 21, 4-((Benzothiazol-2-yl)sulfanyl)-5-hydroxybenzo[1,3]oxathiol-2-one] | 50 µM
9 | O=c1oc2c(-c3ccc(Cl)cc3)cc(O)cc2s1 [Compound 39, 7-(4-chlorophenyl)-5-hydroxybenzo[1,3]oxathiol-2-one] | 30 µM
10 | O=c1oc2c(-c3cc(Cl)ccc3Cl)cc(O)cc2s1 [Compound 42, 7-(2,5-dichlorophenyl)-5-hydroxybenzo[1,3]oxathiol-2-one] | 17 µM
11 | CCc1ccccc1Sc1cc(O)cc2sc(=O)oc12 [Compound 12, 7-((2-Ethylphenyl)sulfanyl)-5-hydroxybenzo[1,3]oxathiol-2-one] | > 30 µM
12 | O=c1oc2c(-c3ccc(Cl)c(Cl)c3)cc(O)cc2s1 [Compound 43, 7-(3,4-dichlorophenyl)-5-hydroxybenzo[1,3]oxathiol-2-one] | 7 µM
13 | CCSc1cc(O)cc2sc(=O)oc12 [Compound 5, 7-Ethylsulfanyl-5-hydroxybenzo[1,3]oxathiol-2-one] | > 30 µM
14 | Cc1cccc(C)c1Sc1cc(O)cc2sc(=O)oc12 [Compound 13, 7-((2,6-Dimethylphenyl)sulfanyl)-5-hydroxybenzo[1,3]oxathiol-2-one] | > 30 µM
15 | CC(C)(C)c1ccc(Sc2cc(O)cc3sc(=O)oc23)cc1 [Compound 17, 7-((4-tert-Butylphenyl)sulfanyl)-5-hydroxybenzo[1,3]oxathiol-2-one] | 25 µM
16 | O=c1oc2c(-c3ccccc3Cl)cc(O)cc2s1 [Compound 36, 7-(2-chlorophenyl)-5-hydroxybenzo[1,3]oxathiol-2-one] | 16 µM
17 | O=c1oc2c(-c3cccc(I)c3)cc(O)cc2s1 [Compound 45, 5-hydroxy-7-(3-iodophenyl)benzo[1,3]oxathiol-2-one] | 7 µM
18 | CCNc1cc(C)cc2sc(=O)oc12 [Compound 56, 7-ethylamino-5-methylbenzo[1,3]oxathiol-2-one] | 40 µM
19 | CC(C)c1ccccc1Sc1cc(O)cc2sc(=O)oc12 [Compound 14, 5-hydroxy-7-((2-iso-Propylphenyl)sulfanyl)benzo[1,3]oxathiol-2-one] | 30 µM
20 | O=c1oc2c(Sc3ccccc3)cc(O)c(Sc3ccc4ccccc4c3)c2s1 [Compound 29, 5-hydroxy-4-(2-naphthylthio)-7-((phenyl)sulfanyl)benzo[1,3]oxathiol-2-one] | > 30 µM
21 | O=c1oc2c(Sc3ccccc3C(F)(F)F)cc(O)cc2s1 [Compound 18, 5-hydroxy-7-((2-Trifluoromethylphenyl)sulfanyl)benzo[1,3]oxathiol-2-one] | > 30 µM
22 | COc1ccc(-c2cc(O)cc3sc(=O)oc23)cc1 [Compound 53, 5-hydroxy-7-(4-methoxyphenyl)benzo[1,3]oxathiol-2-one] | > 30 µM
23 | O=c1oc2c(-c3ccc(-c4ccccc4)cc3)cc(O)cc2s1 [Compound 54, 7-biphenyl-5-hydroxybenzo[1,3]oxathiol-2-one] | 23 µM
24 | O=c1oc2ccc(Nc3c(Cl)cc(Br)cc3Cl)cc2s1 [Compound 58, 5-(4-bromo-2,6-dichloroanalino)benzo[1,3]oxathiol-2-one] | 50 µM
25 | Cc1cccc(-c2cc(OC(=O)c3ccccc3Cl)cc3sc(=O)oc23)c1 [Compound 48, 5-(2-chlorophenylcarbonyloxy)-7-(3-methylphenyl)benzo[1,3]oxathiol-2-one] | 28 µM
26 | Cc1cccc(C)c1-c1cc2oc(=O)sc2cc1O [Compound 50, 6-(2,6-dimethylphenyl)-5-hydroxybenzo[1,3]oxathiol-2-one] | 22 µM

Same assay, conditions: anti-NGF antibody, 48 hours, Alamar Blue viability; read-out: IC50, rescue from anti-NGF killing of cultured SCG neurons

Row | SMILES | IC50
27 | O=c1oc2c([S+]([O-])Cc3ccccc3)cc(O)cc2s1 (stereo not shown) [Compound 6] | > 30 µM

Same assay, conditions: at 10 μM compound

Row | SMILES | rescue from anti-NGF killing, % at 10 μM
28 | CC(C)c1ccccc1Sc1cc2oc(=O)sc2cc1O [Compound 15, 5-hydroxy-6-((2-iso-Propylphenyl)sulfanyl)benzo[1,3]oxathiol-2-one] | 40% at 10 μM

Same assay, conditions: at 30 μM compound

Row | SMILES | rescue from anti-NGF killing, % at 30 μM
29 | O=c1oc2c(-c3ccccc3C(F)(F)F)cc(O)cc2s1 [Compound 51, 5-hydroxy-7-(2-trifluoromethylphenyl)benzo[1,3]oxathiol-2-one] | 38% at 30 μM
30 | O=c1oc2c(-c3ccc(F)cc3)cc(O)cc2s1 [Compound 35, 7-(4-fluorophenyl)-5-hydroxybenzo[1,3]oxathiol-2-one] | 40% at 30 μM
31 | CC(C)c1ccc(Sc2cc(O)cc3sc(=O)oc23)cc1 [Compound 16, 7-(4-iso-Propylphenylthio)-5-hydroxybenzo[1,3]oxathiol-2-one] | 42% at 30 μM

Same assay, conditions: at 50 μM compound

Row | SMILES | rescue from anti-NGF killing, % at 50 μM
32 | CCc1cccc(CC)c1Nc1ccc2oc(=O)sc2c1 [Compound 59, 6-(2,6-diethylanalino)benzo[1,3]oxathiol-2-one] | 38% at 50 μM
33 | O=C(Oc1cc(-c2cccc(Cl)c2)c2oc(=O)sc2c1)c1ccccc1Cl [Compound 38, 5-(2-chlorophenylcarbonyloxy)-7-(3-chlorophenyl)benzo[1,3]oxathiol-2-one] | 40% at 50 μM
34 | Cc1cccc(C)c1-c1cc(O)cc2sc(=O)oc12 [Compound 49, 7-(2,6-dimethylphenyl)-5-hydroxybenzo[1,3]oxathiol-2-one] | 40% at 50 μM
